Results on two compounds are retold here after paper PMC6150237, “Study of Absorption Characteristics of the Total Saponins from Radix Ilicis Pubescentis in an In Situ Single-Pass Intestinal Perfusion (SPIP) Rat Model by Using Ultra Performance Liquid Chromatography (UPLC)” (Molecules : A Journal of Synthetic Chemistry and Natural …, 2017).

The conditions of data set [1]: cited from earlier work.
A short description of data set [2]: In situ single-pass intestinal perfusion (SPIP), saponins administrated in monomer forms. Format: in vivo. The note with it: male, Sprague-Dawley, rat, other: in situ single-pass intestinal perfusion. The method, boiled down:
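Male Sprague-Dawley rats (180–220 g), fasted 18 h and anesthetized with intraperitoneal urethane (30 mg·kg^−1), had ~10 cm segments of duodenum, jejunum and ileum cannulated. Saponins given individually in monomer form, dissolved via DMSO (0.5% final) in K-R buffer, were perfused at 0.2 mL/min at 37 °C. After 20 min of steady state, effluent was collected every 10 min and analyzed by UPLC. Ka and Papp were calculated after gravimetric water-flux correction.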

Where [3] appears, read: administered in monomer forms, summary bound.
The mark [4] stands for this setting: monomer form, duodenum, concentration equivalent to 2.5 mg·mL^−1 MDQ-TS, n = 5.

The structures appear in SMILES notation.

One may read the Papp as a coefficient for how fast a substance crosses the barrier. Regarding `C[C@@H]1CC[C@]2(C(=O)O)CC[C@]3(C)C(=CC[C@@H]4[C@@]5(C)CC[C@H](O)[C@@](C)(C(=O)O)[C@@H]5CC[C@]43C)[C@@H]2[C@]1(C)O` [C1, ilexgenin A], the absolute oral bioavailability result in data set [1] (calculated based on literature data) is recorded as “low value”. For the same compound, in data set [1] (oral administration of C1, 100 mg/kg), the maximum plasma concentration entry is on record as “approximately 350 ng·mL^−1”. For the same compound, the apparent permeability coefficient (Papp) in data set [2] (setting [3]) was over 20 ×10⁻⁶ cm/s; in data set [2] (setting [4]) it was 55 ×10⁻⁶ cm/s; in data set [2] (monomer form, ileum, n = 5), 50 ×10⁻⁶ cm/s; in data set [2] (monomer form, jejunum, n = 5) it was 58.3 ×10⁻⁶ cm/s.
With `CC1CCC2(C(=O)OC3OC(CO)C(O)C(O)C3O)CCC3(C)C(=CCC4C5(C)CCC(O)C(C)(C(=O)O)C5CCC43C)C2C1(C)O` (stereo not shown) [C2, ilexsaponin A1], the Papp in data set [2] (setting [3]) is over 20 ×10⁻⁶ cm/s; in data set [2] (setting [4]) it was 40 ×10⁻⁶ cm/s; in data set [2] (monomer form, ileum, n = 5), 41.7 ×10⁻⁶ cm/s; in data set [2] (monomer form, jejunum, n = 5), 41.7 ×10⁻⁶ cm/s.
